Assay results as given in US20070105908A1, “Thiazolimine compound and oxazolimine compound” (DAINIPPON SUMITOMO PHARMA CO., LTD., priority 2003, published 2007).

Target: T1, chymase derived from human skin (Homo sapiens, UniProt P23946)
T1 construct: chymase derived from human skin (Elastin Products Co.); purchased Elastin Products Co; host or cells: human skin (tissue-derived)
T1 sequence (P23946 22-247): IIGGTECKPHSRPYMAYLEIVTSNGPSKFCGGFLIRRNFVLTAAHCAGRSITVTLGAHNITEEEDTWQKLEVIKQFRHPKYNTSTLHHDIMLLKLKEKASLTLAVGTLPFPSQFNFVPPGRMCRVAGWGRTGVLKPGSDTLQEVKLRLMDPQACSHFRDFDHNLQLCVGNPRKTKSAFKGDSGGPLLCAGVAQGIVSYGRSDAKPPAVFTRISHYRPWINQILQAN
Experiment: Inhibitory effect on chymase (in vitro test)
Assay type: biochemical
Settings: 50 ng chymase, fluorescent synthetic substrate 0.1 mM, pH 8.0, 37° C. for 2 hours
Experimental: Inhibitory Effect on Chymase (In Vitro Test)
To 100 μl of a buffer solution A (50 mM Tris-hydrochloric acid (pH=8.0), 2M NaCl) were added 50 ng of chymase derived from human skin (Elastin Products Co.), a fluorescent synthetic substrate 0.1 mM succinyl-alanylprolyl-phenylalanine-methylcoumalylamide (Peptide Laboratories Co., Ltd.) and a test substance dissolved in dimethyl sulfoxide (DMSO), and the resulting mixture was incubated at 37° C. for 2 hours. Then, the intensity of fluorescence was measured at an excitation wavelength of 355 nm and a measuring wavelength of 460 nm by the use of a fluorescence plate reader (Fluoroscan (Dainippon Pharmaceutical Co., Ltd.)). A fluorescence intensity value obtained without adding the test substance was taken as 100% and a concentration at which a fluorescence intensity value calculated from a regression line became 50% was taken as IC50.

- IC50: 2.1 nM
Structure (SMILES): Cc1cn(Cc2cccc3ccccc23)/c(=N/S(=O)(=O)c2ccccc2C(=O)O)s1 [Example 1, 2-({[(2Z)-5-methyl-3-(1-naphthylmethyl)-1,3-thiazol-2(3H)-ylidene]amino}sulfonyl)benzoic acid]
